Test results reported in patent publication US20130338092A1, “COMPOUNDS AND METHODS FOR TARGETING LEUKEMIC STEM CELLS” (The Broad Institute, Inc., priority 2011, published 2013).
Entries after “also recorded” stand apart in the source; their conditions may differ. Where two headings read alike, the source gives them in different places. Blank lines part the entries; values can stand above or below the molecule they belong to.

What was measured:
[1] = system: normal HSPCs; assay: Normal HSPC coculture on primary MSC stroma
Experimental: The material was cleaned, crushed and sequentially passed through 100 and 70 μM filters (Falcon). […] The biotin-labeled cells were spun down, resuspended in 0.5% FBS in PBS, and incubated for 15-30 minutes at 4° C. with agitation with 1 mL of Dynabead M-280 streptavidin-linked magnetic beads per 4 mice. The bead-linked cells were depleted using magnetic separation and rinsed once. The lineage- and CD48-depleted cell fraction was labeled with streptavidin-APC-Cy7 antibody from BD Biosciences and c-kit-APC, Sca-1-FITC, CD48-Pacific Blue, and CD150 PE-Cy7 antibodies from eBioscience. DsRed-positive lineage-Sca-1+c-kit+CD48− HSCs were sorted using a FACS DiVa or FACS ARIA (BD Biosciences).
A total of 20 μL of 20 μg/mL fibronectin (Millipore) in PBS was added to each well of a 384-well clear-bottomed black tissue-culture treated plate (Corning) and incubated for 30-120 minutes at 33° C. or 37° C. […] The fibronectin solution was removed from each well using a 24-channel wand aspirator; then 30 μL of BMSC solution was added to plate 2000 BMSCs/well. […] Each plate was covered with a sterile rayon breathable membrane (VWR) and plastic lid, and then spun at 500 rpm (approximately 60× gravity) with slow braking. The plates were incubated at room temperature for 60-90 minutes before incubation at 33° C. with 5% CO2 for 3 days prior to HSC addition.
The sorted HSCs, SLAMs and progenitor cells were resuspended in phenol-red free alpha-MEM with 20% FBS and diluted to 10,000 cells/mL. A total of 20 μL of cell solution containing 200 hematopoietic cells was added to each well using a multichannel pipettor or liquid-dispensing system. Each plate was covered with a sterile rayon breathable membrane (VWR) and plastic lid, and then spun at 500 rpm (approximately 60×gravity) with slow braking. The plates were incubated at room temperature for 60-90 minutes before incubation at 33° C. with 5% CO2 overnight prior to compound or cytokine addition.
Image analysis was performed using MetaXpress software from MDC and CellProfiler software from the Broad Institute of Harvard and MIT.
Compound addition and incubation was performed as described for the LSC coculture screen above, but without a media change or readdition of the compound.
The selected set was screened in 8-point dose against both normal HSPCs with a high number of replicates (6) and LSC-enriched leukemia cells, each cocultured on primary MSCs.

[2] = system: LSC-enriched leukemia cells (MLL-AF9); assay: Leukemia coculture assay on primary MSC stroma (cobblestoning readout); format: cell-based, murine; conditions: for leukemia-selective activity in coculture vs normal HSPCs: primary MSC stroma
Experimental: Whole bone marrow were harvested from C57/B16 actin-dsRed mice (006051, Jackson Labs), subjected to red blood cell lysis (Qiagen), then granulocyte-macrophage progenitors (GMPs) were isolated by Fluorescence-activated cell sorting (FACsAria, Becton Dickinson). GMPs were spinfected twice (2500 rpm, 90 min, 37 C) in the presence of mIL3 (10 ng/ml, Peprotech), mIL6 (10 ng/ml, Peprotech), and mSCF (10 ng/ml, Peprotech) with pMSCV-MLL-AF9-Neo virus then transplanted into lethally irradiated C57/B16 recipients. After disease onset, the spleens were harvested and transplanted into sublethally irradiated secondary recipients. Subsequent transplantation of bulk spleen cells from leukemic secondary mice was repeated twice to generate leukemic GMPs from quaternary transplant leukemic mouse bone marrow.
Long bones and hips from moribund leukemic mice were harvested, cleaned, crushed and sequentially passed through 100 and 70 μM filters (Falcon). The cells were RBC lysed (Qiagen) and stained in PBS+2% FBS (Omega). Antibodies included lineage markers CD4, CD8, Gr1, Mac1, IL-7R, and Ter119 (Caltag), c-kit (17-1172-83, eBioscience), Sca-1 (11-5981-82, eBioscience), CD34 (11-0341-85, eBioscience), and CD16/32 (25-0161-82, eBioscience). Hoechst 33258 (H21491, Invitrogen) was also used, to identify live cells. Cells were sorted on a FacsAria II (Becton Dickinson).
The humerii, tibiae, ilia, femurs, and spine were isolated from actin-GFP mice (000329, Jackson Lab) crushed using a mortar and pestle, washed in phosphate-buffered saline (PBS) without magnesium and calcium (Gibco) with 0.5% fetal bovine serum (FBS) (HyClone) and filtered through a 70-μm filter. Red blood cell lysis was performed with ammonium-chloride/potassium-chloride (ACK) lysing buffer (Lonza), the cells were resuspended in α-MEM (StemCell Technologies), 20% FBS (HyClone) and 1× Pen-Strep (CellGro), plated in 25 ml in 150-cm^2 tissue-culture flasks (three per mouse), and incubated at 33° C. with 5% CO2. After 2-3 days, the medium was replaced with fresh α-MEM with 20% FBS. After 8-14 days, the cells were rinsed, split by trypsinization (CellGro), pooled, filtered through a 70 μm filter, replated at 3-4 million cells per 150-cm^2 tissue-culture flask, and grown at 33° C. with 5% CO2 for 3-4 days until nearly confluent. The cells were trypsinized, filtered, and resuspended in 0.5% FBS in PBS with biotin-conjugated anti-mouse CD105 antibody (eBioscience) for 15-30 minutes at room temperature. The CD105-labeled cells were incubated with Dynabead M-280 streptavidin-linked magnetic beads (Invitrogen) for 15-30 minutes at 4° C. with agitation and isolated using magnetic separation and rinsed once. The CD105^+ cell fraction was replated at 1-2 million cells per 150-cm^2 tissue-culture flask and incubated at 33° C. with 5% CO2 for 2-3 days.
The MSCs were trypsinized, filtered, diluted in phenol-red-free alpha-MEM with 20% FBS, and plated (30 μl for a total of 2000 cells per well) on 384-well clear-bottomed black tissue-culture treated plate (3712, Corning) pretreated with fibronectin (Millipore). Plate covers (VWR) were added, the plates were spun and at 500 with slow braking, and the cells were incubated at room temperature for 60-90 minutes before incubation at 33° C. with 5% CO2 for 3 days prior to hematopoietic cell plating. […]

[3] = system: normal primary human CD34+ cells; assay: Alamar Blue assay for human progenitor cell toxicity; conditions: for IC50: read-out: Normal Progenitor* IC50
Experimental: Normal G-CSF mobilized CD34+ cells (AllCells, LLC, Emeryville, Calif.), normal BM CD34 cells (MSKCC, New York, N.Y.) and cord blood CD34+ cells (New York Blood Center, New York) were previously frozen and thawed out before the proliferation assay was set up in 384-well plates. Briefly, 50 μl of IMDM medium containing 20% FBS (Gemini Bio-Product, West Sacramento, Calif.), 20 ng/ml of recombinant human Kit Ligand (rhKL), 20 ng/ml of rh-Interleukin-3 (rhIL-3), 20 ng/ml of rhG-CSF, 6 units/ml of rhEPO, 10-42-mercaptoethanol, 2 mM glutamine, 50 u/ml penicillin, 50 μg/ml streptomycin, 1,000 viable CD34+ cells in the presence of various doses of Broad compounds (drug-treated group) or 0.1% DMSO (control group) were incubated at 37° C. After 6 days, 5 μl of AlamaBlue (AbD Serotec, Raleigh, N.C.) was added to each well and further incubated overnight. The fluorescence signal was then measured with GeminiXS microplate reader (Molecular Devices, Sunnyvale, Calif.). Effect of small molecules to proliferation of CD34+ cells was reported as Relative fluorescent intensity (Relative Fluorescent Intensity=Fluorescent Intensity (drug-treated)/Fluorescent Intensity (Control).
Finally, experiments were performed to examine whether BRD7116 or lovastatic acid were likely to cause myelosuppression, a type of deleterious toxicity in patients resulting from harm to normal human hematopoietic progenitor cells. This consideration is especially important as conventional therapies currently used in the clinic have myelosuppressive toxicities that are dose-limiting. To this end, a hematopoietic progenitor assay was employed to compare the effects of BRD7116 and lovastatic acid to effects given by such known myelosuppressive compounds. In this assay, normal primary human CD34^+ cord blood cells were plated with cytokines in suspension, treated with compound for 7 days, and then examined for viability relative to DMSO treated controls.

[4] = system: MLL-AF9 LSC; assay: Triple coculture (LSCs and HSPCs on primary MSCs), leukemia cells; format: cell-based, murine; conditions: murine LSCs in triple coculture with HSPCs on MSCs
Experimental: (§1) As in the original assay approach, treatment of these triple cocultures began one day after hematopoietic cell plating and was assessed 5 days later.
(§2) An in vitro therapeutic index was determined for each compound, a comparative measure of the potential for anti-LSC efficacy relative to the potential for dose-limiting toxicities to normal HSCs (myeloablation), or to normal progenitors (myelosuppression). Specifically, ratios were created using the IC50s for primary murine HSPCs in triple coculture as the numerator, and the IC50s for primary murine leukemia inhibition in triple coculture as the denominator, toward assessing the potential for HSC harm relative to LSC inhibition.

[5] = system: normal murine HSPCs; assay: Triple coculture (LSCs and HSPCs on primary MSCs), normal HSPCs; conditions: read-out: Normal HSPC* IC50
Experimental: as §1, §2

[6] = Mus musculus, read-out: Normal IC50, HSPCs on primary MSC stroma, 8-point dose
[7] = Mus musculus, MLL-AF9, LSCs on primary MSC stroma, 8-point dose, read-out: Leukemia IC50
[8] = Mus musculus, read-out: Normal IC50, statins (acid form), HSPCs cocultured on primary MSC stroma
[9] = Mus musculus, MLL-AF9, statins (acid form), LSCs cocultured on primary MSC stroma, read-out: Leukemia IC50

Molecule: COc1cc2c(cc1O)CC[C@@H]1[C@@H]2CC[C@]2(C)[C@@H](O)CC[C@@H]12 [2-Methoxy estradiol]
IC50 [1, 6]: > 20000 nM
IC50 [2, 7]: 77 nM
leukemia-selective activity in coculture vs normal HSPCs [2]: displayed leukemia selectivity

Molecule: c1cc(CN2CCCNCCNCCCNCC2)ccc1CN1CCCNCCNCCCNCC1 [AMD3100]
leukemia-selective activity in coculture vs normal HSPCs [2]: showed selectivity for LSCs over HSPCs

Molecule: Nc1ccn([C@@H]2O[C@H](CO)[C@@H](O)[C@@H]2O)c(=O)n1 [Ara-C]
toxicity to hematopoietic progenitor cells ([3]; 7 days of exposure, viability relative to DMSO): kill progenitors; also recorded: displayed toxicity
IC50 ([3]; normal human hematopoietic progenitors, 7 days): 2500 nM
IC50 [4]: 2500 nM
IC50 ([5]; normal murine HSPCs in triple coculture with LSCs on primary MSCs): 5000 nM

Molecule: CC(C)c1c(C(=O)Nc2ccccc2)c(-c2ccccc2)c(-c2ccc(F)cc2)n1CC[C@@H](O)C[C@@H](O)CC(=O)O [Atorvastatin]
IC50 [1, 8]: > 20000 nM
IC50 [2, 9]: ≤ 1900 nM
leukemia-selective activity in coculture vs normal HSPCs [2]: selectively inhibited leukemia cobblestoning

Molecule: COCc1c(C(C)C)nc(C(C)C)c(/C=C/[C@@H](O)C[C@@H](O)CC(=O)O)c1-c1ccc(F)cc1 [Cerivastatin]
IC50 [1, 8]: > 20000 nM
IC50 [2, 9]: < 10 nM

Molecule: COc1cccc2c1C(=O)c1c(O)c3c(c(O)c1C2=O)C[C@@](O)(C(C)=O)C[C@@H]3O[C@H]1C[C@H](N)[C@H](O)[C@H](C)O1 [Daunorubicin]
IC50 ([3]; Homo sapiens, 168 h): 20 nM
IC50 ([5]; Mus musculus): 50 nM

Molecule: CC(C)n1c(/C=C/C(O)CC(O)CC(=O)O)c(-c2ccc(F)cc2)c2ccccc21 (stereo not drawn) [Fluvastatin]
IC50 [1, 8]: > 20000 nM
IC50 [2, 9]: 27.9 nM

Molecule: C=C1C(=O)O[C@@H]2[C@H]3O[C@]3(C)CC/C=C(\C)CC[C@@H]12 [Parthenolide]
IC50 [1, 6]: > 20000 nM
IC50 [2, 7]: 7500 nM

Molecule: COc1cc(/C=C/C(=O)N2CCC=CC2=O)cc(OC)c1OC [Piperlongumine]
IC50 ([1]; Mus musculus, read-out: Normal IC50): ~20000 nM
IC50 ([2]; Mus musculus, MLL-AF9, read-out: Leukemia IC50): 379 nM

Molecule: CC(C)c1nc(N(C)S(C)(=O)=O)nc(-c2ccc(F)cc2)c1/C=C/[C@@H](O)C[C@@H](O)CC(=O)O [Rosuvistatin]
IC50 ([1]; read-out: Normal IC50, statins (acid form), HSPCs cocultured on primary MSC stroma): > 20000 nM
leukemia-selective activity in coculture vs normal HSPCs [2]: selectively inhibited leukemia cobblestoning
IC50 ([2]; statins (acid form), LSCs cocultured on primary MSC stroma, read-out: Leukemia IC50): 1220 nM

Molecule: CCC(C)(C)C(=O)O[C@H]1C[C@@H](C)C=C2C=C[C@H](C)[C@H](CC[C@@H]3C[C@@H](O)CC(=O)O3)[C@H]21 [Simvastatin]
IC50 [1, 8]: > 20000 nM
IC50 [2, 9]: ≤ 15 nM

Molecule: Celastrol
IC50 ([1]; read-out: Normal IC50, HSPCs on primary MSC stroma, 8-point dose): > 20000 nM
IC50 ([2]; LSCs on primary MSC stroma, 8-point dose, read-out: Leukemia IC50): 102 nM

Second part, led by results:

IC50 [2, 7]: ≤ 10 nM
Molecule: CC[n+]1c(/C=C2\C=C(C)CC(C)(C)C2)oc2ccccc21 [BRD0638]
IC50 [1, 6]: > 20000 nM

IC50 [2, 7]: ≤ 10 nM
Molecule: CC[n+]1c(/C=C2/C=C(C)CC(C)C2)sc2ccccc21 (stereo not drawn) [BRD1319]
IC50 [1, 6]: > 20000 nM

IC50 [2, 7]: 1420 nM
Molecule: CCOc1ccccc1NC(=O)C(C)Oc1ccc(OC)cc1 (stereo not drawn) [BRD1686]
IC50 [1, 6]: > 20000 nM

IC50 [2, 7]: 813 nM
Molecule: O=C(c1ccccc1)c1cc[n+](Cc2ccccn2)cc1 [BRD1856]
IC50 [1, 6]: > 20000 nM

IC50 [2, 7]: 2140 nM
Molecule: C[C@@H]1CN([C@@H](C)CO)C(=O)c2cccc(NC(=O)Nc3ccccc3)c2O[C@@H]1CN(C)Cc1ccc(C(=O)Nc2ccccc2N)cc1 [BRD6708]
IC50 [1, 6]: > 20000 nM

IC50 [2, 7]: 149 nM
Molecule: COc1cc2c(cc1OC)-c1c(C#N)c(-c3ccc(C)cc3)c(C(=O)c3cccs3)n1CC2 [BRD8404]
IC50 [1, 6]: > 20000 nM

IC50 [2, 7]: 699 nM
Molecule: C[C@@H]1CN([C@@H](C)CO)C(=O)c2cccc(NC(=O)C3CCCCC3)c2O[C@@H]1CN(C)Cc1ccc(C(=O)Nc2ccccc2N)cc1 [BRD9608]
IC50 [1, 6]: ~20000 nM
